ChEMBL document CHEMBL1154288, “The discovery and unique pharmacological profile of RO4938581 and RO4882224 as potent and selective GABAA alpha5 inverse agonists for the treatment of cognitive dysfunction” (Bioorg Med Chem Lett, 2009)
Values after ≈ are worked out from the molar mass of the structure shown.

Assays:
[1] = molecular target: T1, GABA-A receptor; alpha-5/beta-3/gamma-2 (Homo sapiens, UniProt P18507+P28472+P31644); assay: Displacement of [3H]Flumazenil from cloned human GABA alpha-5-beta-3-gamma-2 receptor expressed in HEK293 cells; format: cell-based
T1 sequence (P18507 whole entry): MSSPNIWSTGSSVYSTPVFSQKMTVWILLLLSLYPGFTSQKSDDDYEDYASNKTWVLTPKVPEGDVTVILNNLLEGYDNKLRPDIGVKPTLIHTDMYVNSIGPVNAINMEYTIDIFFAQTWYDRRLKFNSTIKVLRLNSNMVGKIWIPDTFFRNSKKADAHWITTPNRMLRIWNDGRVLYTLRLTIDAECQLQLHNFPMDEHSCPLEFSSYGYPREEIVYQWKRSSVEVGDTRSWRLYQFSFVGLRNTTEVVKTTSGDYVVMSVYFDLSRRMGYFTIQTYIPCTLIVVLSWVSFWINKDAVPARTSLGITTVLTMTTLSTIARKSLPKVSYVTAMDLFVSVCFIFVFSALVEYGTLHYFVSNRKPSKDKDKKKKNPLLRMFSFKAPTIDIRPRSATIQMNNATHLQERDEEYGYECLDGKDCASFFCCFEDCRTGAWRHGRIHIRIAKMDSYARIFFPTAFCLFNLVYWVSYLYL
T1 sequence (P28472 whole entry): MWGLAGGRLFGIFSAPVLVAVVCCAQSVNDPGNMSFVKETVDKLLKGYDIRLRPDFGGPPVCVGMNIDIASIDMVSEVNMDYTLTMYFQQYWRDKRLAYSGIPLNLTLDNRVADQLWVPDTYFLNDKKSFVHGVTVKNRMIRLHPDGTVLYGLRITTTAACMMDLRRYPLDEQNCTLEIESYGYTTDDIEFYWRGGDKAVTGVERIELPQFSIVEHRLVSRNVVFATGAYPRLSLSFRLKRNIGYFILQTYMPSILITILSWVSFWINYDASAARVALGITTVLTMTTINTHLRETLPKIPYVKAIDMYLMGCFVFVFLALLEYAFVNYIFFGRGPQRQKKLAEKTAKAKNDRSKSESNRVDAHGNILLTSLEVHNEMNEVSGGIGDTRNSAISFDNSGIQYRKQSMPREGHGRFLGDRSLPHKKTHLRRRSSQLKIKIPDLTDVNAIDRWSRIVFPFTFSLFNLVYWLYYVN
T1 sequence (P31644 whole entry): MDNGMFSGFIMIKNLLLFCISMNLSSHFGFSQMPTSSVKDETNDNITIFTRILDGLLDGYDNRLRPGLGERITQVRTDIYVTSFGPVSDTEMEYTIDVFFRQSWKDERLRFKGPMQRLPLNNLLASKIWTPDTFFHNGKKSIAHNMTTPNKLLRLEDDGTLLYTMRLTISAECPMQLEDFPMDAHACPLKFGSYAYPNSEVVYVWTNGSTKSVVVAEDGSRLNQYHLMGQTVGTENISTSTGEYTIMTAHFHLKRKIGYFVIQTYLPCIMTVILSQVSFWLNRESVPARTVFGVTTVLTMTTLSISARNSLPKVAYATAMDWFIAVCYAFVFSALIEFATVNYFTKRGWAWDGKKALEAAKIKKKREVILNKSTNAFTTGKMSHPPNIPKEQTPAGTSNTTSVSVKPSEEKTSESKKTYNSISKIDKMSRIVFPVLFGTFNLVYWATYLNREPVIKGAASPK

[2] = tested on: HEK293; assay: Selectivity ratio of Ki for cloned human GABA alpha-1-beta-3-gamma-2 receptor expressed in HEK293 cells to Ki for cloned human GABA alpha-5-beta-3-gamma-2 receptor expressed in HEK293 cells; format: cell-based
[3] = tested on: HEK293; assay: Selectivity ratio of Ki for cloned human GABA alpha-2-beta-3-gamma-2 receptor expressed in HEK293 cells to Ki for cloned human GABA alpha-5-beta-3-gamma-2 receptor expressed in HEK293 cells; format: cell-based
[4] = tested on: HEK293; assay: Selectivity ratio of Ki for cloned human GABA alpha-3-beta-3-gamma-2 receptor expressed in HEK293 cells to Ki for cloned human GABA alpha-5-beta-3-gamma-2 receptor expressed in HEK293 cells; format: cell-based
[5] = molecular target: GABA A receptor alpha-5/beta-3/gamma-2 (Rattus norvegicus) (UniProt P18508+P19969+P63079); assay: Inverse agonist activity at rat GABA alpha-5-beta-3-gamma-2 receptor expressed in HEK293 cells by electrophysiology assay relative to GABA; format: functional, cell-based
[6] = molecular target: GABA-A receptor; alpha-5/beta-3/gamma-2 (Homo sapiens) (UniProt P18507+P28472+P31644); assay: Inverse agonist activity at human GABA alpha-5-beta-3-gamma-2 receptor expressed in Xenopus laevis oocyts by electrophysiology assay relative to GABA; format: functional
[7] = molecular target: GABA-A receptor; alpha-1/beta-2/gamma-2 (Rattus norvegicus) (UniProt P18508+P62813+P63138); assay: Inverse agonist activity at rat GABA alpha-1-beta-3-gamma-2 receptor expressed in HEK293 cells by electrophysiology assay relative to GABA; format: functional, cell-based
[8] = Solubility by lypophlisation solubility assay; format: physicochemical
[9] = Lipophilicity, log D at pH 7.4; format: physicochemical; conditions: buffer
[10] = Permeability by PAMPA; format: ADME; conditions: read-out: permeability
[11] = Half life in rat; format: ADME, organism-based; conditions: in vivo
[12] = Clearance in rat; format: ADME, organism-based; conditions: in vivo
[13] = Volume of distribution at steady state in rat; format: ADME, organism-based; conditions: in vivo, read-out: Vdss
[14] = Oral bioavailability in rat; format: ADME, organism-based; conditions: in vivo

Compound	Ki [1] [nM]	Ratio Ki [2]	Ratio Ki [3]	Ratio Ki [4]	Efficacy [5] [%]	Efficacy [6] [%]	Efficacy [7] [%]	solubility [8] [µg/mL]	logD [9]	Papp [10] [×10⁻⁶ cm/s]	half-life [11] [h]	clearance [12] [mL/min/kg]	Vd [13] [L/kg]	bioavailability [14] [%]
CCC(F)(F)c1ncn2c1Cn1ncnc1-c1cc(F)ccc1-2	3.2	5	3	2	-27									
COc1ccc2c(c1)-c1ncnn1Cc1c(C)ncn1-2	7.7	11	31	18		-45								
FC(F)c1ccc2c(c1)-c1ncnn1Cc1c(Cl)ncn1-2	1.1	19	36	15	-42									
Cc1ncn2c1Cn1ncnc1-c1cc(OC(F)F)ccc1-2	1.8	58	53	33		-43								
Cc1ncn2c1Cn1ncnc1-c1cccc(F)c1-2	64	12	12	5		-50								
Cc1ccc2c(c1)-c1ncnn1Cc1c(Cl)ncn1-2	1.8	11	23	12	-37									
Cc1ncn2c1Cn1ncnc1-c1c(F)cccc1-2	1	5	13	6		-42								
Cc1ncn2c1Cn1ncnc1-c1c(Cl)cccc1-2	1.2	0.6	2	1		-45								
C#CCNC(=O)c1ncn2c1Cn1ncnc1-c1cc(F)ccc1-2	68	4	1	1	-35									
Cc1ncn2c1Cn1ncnc1-c1cc(Br)ccc1-2	6.2	22	30	21	-42		-9	78 (≈ 247 µM)	1.6	7.6	7.7	0.6	0.4	80
Cc1ncn2c1Cn1ncnc1-c1cc(C(F)F)ccc1-2	2.2	29	62	30		-45								
Clc1ncn2c1Cn1ncnc1-c1cc(C3CC3)ccc1-2	1.2	23	15	16	-47									
Cn1nccc1-c1ncn2c1Cn1ncnc1-c1cc(Br)ccc1-2	9.7	26	35	22		-33								
Brc1ccc2c(c1)-c1ncnn1Cc1c(-c3cccs3)ncn1-2	4	27	22	16		-10								
Clc1ncn2c1Cn1ncnc1-c1cc(-c3ccccc3)ccc1-2	6.3	4	5	8	8									
CS(=O)(=O)Nc1ccc2c(c1)-c1ncnn1Cc1c(Cl)ncn1-2	54	7	5	5		-36								
Cc1ncn2c1Cn1ncnc1-c1cc(I)ccc1-2	4.4	42	60	29		-57								
